Experimental data reported in patent US9809562B2, “NAT10 modulators for treating or preventing laminopathies, aging and cancer” (CAMBRIDGE ENTERPRISE LIMITED, priority 2014, dated 2017).
Where a name gives a salt, the structure may show the parent alone.

What was measured:
[1] = system: HGPS primary fibroblasts (AG11498 and AG06267); experiment: Misshapen nuclei in HGPS cells; format: cell-based, human; settings: HGPS patient fibroblasts
Protocol: U2OS and SaOS-2 osteosarcoma cells, HeLa cervical cancer cells, A431 melanoma cells, NCI-SNU5 gastric cancer cells, MRC-5 lung fibroblast cells and Werner syndrome patient-derived SV40 fibroblast cells were grown in Dulbecco's modified Eagle medium (DMEM, Sigma-Aldrich) supplemented with 10% fetal bovine serum (BioSera), 2 mM L-glutamine, 100 U per ml penicillin, 100 μg ml^−1 streptomycin. Normal skin primary fibroblasts GM03440 and Hutchinson Gilford Progeria Syndrome (HGPS) skin primary fibroblasts AG11498 and AG06297 were purchased from Coriell Cell Repositories and used between passage number 9-12 and 20-23 respectively. Cells were grown in DMEM supplemented as above. RPE-1 retinal pigment epithelial cells were grown in DMEM and Ham F12 mix medium supplemented as above and buffered with sodium bicarbonate. HMV-II melanoma cell line, 22RV1 prostate carcinoma cells, NCI-H82 and NCI-H69 lung carcinoma cells, and NCI-N87 gastric cancer cell lines were grown in RPMI-1640 medium (Sigma-Aldrich) supplemented as above. Stably transfected U2OS cells were maintained in standard medium containing 1 mg ml^−1 G418 (Invitrogen). The siRNA duplexes were obtained from Life Sciences: Lamin A/C stealth RNAi: […] (SEQ ID NO: 1) and […] (SEQ ID NO: 2), NAT10 stealth RNAi: […] (SEQ ID NO: 3), and as control siRNA, stealth RNAi negative control duplexes were used. Plasmid DNA and siRNA transfections were carried out using Lipofectamine 2000 and Lipofectamine RNAiMax (Life Sciences) respectively, following the manufacturer's instructions. Cells were analysed 48 to 72 hours after transfection.
(§1) The following KAT and KDAC inhibitors were used in the nuclear shape rescue screen, incubating cells with the molecules for 16 hours: trichostatin A (1 μM), sodium butyrate (5 mM), tubacin (10 μM), SAHA (5 μM), curcumin (10 μM), garcinol (50 μM), anacardic acid (1 μM), MB-3 (5 μM), 4-(4-chlorophenyl)-2-(2-cyclopentylidenehydrazinyl)thiazole (Compound 2) (50 μM), 4-(4-chlorophenyl)-2-(2-cyclopentylidene-1-(prop-2-yn-1-yl)hydrazinyl)thiazole (Compound 3) (50 μM) and cyclopentylidene-[4-(4-cyanophenyl)thiazol-2-yl)hydrazine (Compound 1) (Remodelin) (10 to 50 μM). For HGPS cellular fitness assays, Remodelin was incubated at 1 μM for 1 to 10 days, renewing the medium every 3 days. For long-term senescence assay, cells were kept and passaged in medium containing 1 μM Remodelin or DMSO only for 12 population doublings. Senescence was assessed after 8 days of Remodelin treatment when cells were at Population Doubling 12, and then after several weeks of Remodelin treatment, when cells reached Population Doubling 24 using the Senescence β-Galactosidase Staining Kit #9860 from Cell Signaling. Nocodazole, colchicine and latrunculin A (Sigma-Aldrich) were used at 200 ng/ml, 1 μg/ml and 1 μM respectively. […]

normal human fibroblasts = experiment: Nuclear shape of normal fibroblasts, with or without FTI; format: cell-based
From the text: FIG. 11: Remodelin prevents FTI induced nuclear shape defects in non-progeric cells. A) Analysis of Lamin A/C processing after Remodelin or FTI treatment, showing that Remodelin is not a FTI. B) Representative pictures of Lamin A/C IF staining after the indicated treatments. Arrows indicate FTI induced misshapen nuclei in normal fibroblasts. Scale bar: 50 μm. C) Quantification of misshapen nuclei with the indicated cell lines and inhibitor treatments (means of three independent experiments±s.e.m. n>178). D) Representative pictures of DAPI staining showing effects of FTI and Remodelin on nuclear shape of U2OS cells. Scale bars: 20 μm.
U2OS and SaOS-2 osteosarcoma cells, HeLa cervical cancer cells, A431 melanoma cells, NCI-SNU5 gastric cancer cells, MRC-5 lung fibroblast cells and Werner syndrome patient-derived SV40 fibroblast cells were grown in Dulbecco's modified Eagle medium (DMEM, Sigma-Aldrich) supplemented with 10% fetal bovine serum (BioSera), 2 mM L-glutamine, 100 U per ml penicillin, 100 μg ml^−1 streptomycin. […] Cells were analysed 48 to 72 hours after transfection.
as §1, with “For HGPS cellular fitness assays, Remodelin was incubated at 1 μM for 1 to 10 days, renewing the medium every 3 days. For long-term senescence assay, cells were kept and passaged in medium containing 1 μM Remodelin or DMSO only for 12 population doublings.” left out, “Signaling.” for “Signaling. Nocodazole, colchicine and latrunculin A (Sigma-Aldrich) were used at 200 ng/ml, 1 μg/ml and 1 μM respectively.”

HGPS cells = experiment: EdU incorporation by flow cytometry in HGPS cells; format: cell-based, human; settings: 2 hours EdU
Protocol: 10 μM EdU was incubated for 2 hours when indicated. Cells were fixed in 4% paraformaldehyde (Sigma-Aldrich). EdU was fluorescently labeled using the Click-iT® EdU Flow Cytometry Assay Kit (Life Sciences). DNA was stained with […] propidium iodide (Sigma-Aldrich) in phosphate buffer solution (PBS) containing 0.1% Triton-X-100 and 0.5 mg ml^−1 DNase free RNase A (Sigma-Aldrich). Samples were processed on a FACSCalibur flow cytometer equipped with CellQuest software (Becton Dickinson). Results were analysed using FlowJo software (TreeStar).

[2] = In vivo toxicity, body weight change; settings: mice, oral daily dose for 14 days
Lmna^G609G/G609G mice = experiment: Tubulin acetylation levels in mice; format: in vivo, mouse; settings: treated Lmna^G609G/G609G mice
Protocol: As Tubulin is a direct substrate of NAT10, Tubulin acetylation levels in cells derived from HGPS patients (left and bottom panel of FIG. 27) were assessed as well as in Lmna^G609G/G609G mice (right panel of FIG. 27).

| SMILES | misshapen nuclei / nuclear shape of HGPS cells [1] | nuclear shape of normal cells (normal human fibroblasts; cells that do not express Progerin) | FTI-induced nuclear shape defects (normal human fibroblasts; normal fibroblasts co-treated with FTI) | DNA replication (EdU incorporation) (HGPS cells) | tolerability (body weight change) [2] | tubulin acetylation levels (Lmna^G609G/G609G mice) |
| --- | --- | --- | --- | --- | --- | --- |
| N#Cc1ccc(-c2csc(NN=C3CCCC3)n2)cc1 [Compound 1, 4-(4-Cyanophenyl)-2-(2-cyclopentylidenehydrazinyl)thiazole] | significantly reduced the number of HGPS cells with misshapen nuclei | did not induce nuclear shape defects in normal human fibroblasts | prevented FTI-induced nuclear shape defects | improved DNA replication |  |  |
| Clc1ccc(-c2csc(NN=C3CCCC3)n2)cc1 [Compound 2, 4-(4-Chlorophenyl)-2-(2-cyclopentylidenehydrazinyl)thiazole Hydrochloride Salt] |  |  |  |  | well tolerated orally, up to high doses of 400 mg/kg/day, without significant decrease of body weight | decrease of tubulin acetylation levels |
